Laboratory results taken from US6806230B1, “Pyrimidine derivatives and herbicides containing them” (Kumiai Chemical Industry Co., Ltd., priority 1999, dated 2004).

How the values were obtained:
Type in all cases: in vivo
barnyard grass (Eo) [1] = test: Test Example 1: herbicidal effects by flooded paddy field treatment; parameters: herbicidal effects, Eo (barnyard grass):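 0-5 growth inhibition grade; 5 = over 90%; 4 = 70-90%; 3 = 50-70%; 2 = 30-50%; 1 = 10-30%; 0 = under 10%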; details: dose 100 g active ingredient per 10 ares, examined on the 21st day after treatment, standards of Table 44
Summary of the method: (§1)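 Dose: 100 g active ingredient per 10 ares as a diluted wettable powder dripped onto 3 cm floodwater, one day after sowing in puddled paddy soil. Scored by a standard rating scale 21 days later following greenhouse growth.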

monochoria (Mo) [2] = test: as above; parameters: herbicidal effects, Mo (monochoria):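 0-5 growth inhibition grade; 5 = over 90%; 4 = 70-90%; 3 = 50-70%; 2 = 30-50%; 1 = 10-30%; 0 = under 10%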; details: dose 100 g active ingredient per 10 ares, examined on the 21st day after treatment, standards of Table 44
Summary of the method: as §1

barnyard grass (Ec) = test: Test Example 2: herbicidal effects by upland soil treatment; parameters: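 0-5 growth inhibition grade; 5 = over 90%; 4 = 70-90%; 3 = 50-70%; 2 = 30-50%; 1 = 10-30%; 0 = under 10%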; details: dose 100 g active ingredient per 10 ares, examined on the 21st day after treatment
Summary of the method: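 Pre-emergence test: barnyard grass and green foxtail sown in upland soil, then soil surface sprayed with wettable-powder formulation at 100 g active ingredient per 10 ares (100 l per 10 ares). Grown in greenhouse; herbicidal effect scored on a rating scale 21 days after treatment.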

barnyard grass (Eo) [3] = test: Test Example 4: selectivity for a crop plant by flooded paddy field treatment; parameters: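 0-5 growth inhibition grade; 5 = over 90%; 4 = 70-90%; 3 = 50-70%; 2 = 30-50%; 1 = 10-30%; 0 = under 10%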; details: barnyard grass, dose 25 gai/10a, 21st day after treatment, index per Table 44
Procedure: (§2) In a 100 cm^2 plastic pot, a paddy field soil was filled and paddled. Then, seeds of barnyard grass (Eo) and monochoria (Mo) were sown, and rice (Or) of second leaf stage was transplanted, and water was introduced to a depth of 3 cm. Next day, a wettable powder prepared in accordance with Formulation Example 1 was diluted with water and dropwise applied to the water surface. The dose was 25 g of the active ingredient per 10 ares. Thereafter, cultivation was carried out in a green house, and on the 21st day after the treatment, the herbicidal effects were examined in accordance with the standards of Table 44.

monochoria (Mo) [4] = test: as above; parameters: scale not given here; details: monochoria, dose 25 gai/10a, 21st day after treatment, index per Table 44
Procedure: as §2

rice (Or) = test: as above; parameters: scale not given here; details: rice transplanted at second leaf stage, dose 25 gai/10a, 21st day after treatment, index per Table 44
Procedure: as §2

SMILES	herbicidal effects, Eo (barnyard grass) (barnyard grass (Eo) [1])	herbicidal effects, Mo (monochoria) (monochoria (Mo) [2])	Ec (herbicidal effects, index) (barnyard grass (Ec))	Eo (herbicidal effect index) (barnyard grass (Eo) [3])	Mo (herbicidal effect index) (monochoria (Mo) [4])	Or (herbicidal effect index on crop) (rice (Or))
CC(C)C(c1cncnc1C(F)(F)F)N(C)C(=O)Cc1ccsc1 (racemic) [2-2]	5	5	5	5	5	1
C#CCN(C(=O)Cc1ccccc1)C(c1cncnc1CC)C(C)(C)C (racemic) [1-626]	5	5	5	5	5	1
C#CCN(C(=O)N(C)C(c1cncnc1C(F)(F)F)C(C)C)c1ccc(F)cc1 (racemic) [1-533]	5	5	5	5	5	1
CCc1ncncc1C(N(C)C(=O)Cc1ccc(C)cc1)C(C)(C)C (racemic) [1-567]	5	5	5	5	5	1
Cc1ccc(CC(=O)N(C)C(c2ccccc2F)c2cncnc2C(F)(F)F)cc1 (racemic) [1-549]	5	5	5	5	5	0
CC(C)C(c1cncnc1C(F)(F)F)N(C)C(=O)Cc1cc(F)c(F)c(F)c1 (racemic) [1-418]	5	5	5	5	5	1
CN(C(=O)Cc1ccc(Cl)cc1)C(c1ccccc1F)c1cncnc1C(F)(F)F (racemic) [1-548]	5	5	5	5	5	1
CN(C(=O)Cc1ccsc1)C(c1ccccc1)c1cncnc1C(F)(F)F (racemic) [2-20]	5	5	5	5	5	1
CC(C)C(c1cncnc1C(F)(F)F)N(C)C(=O)Cc1ccc2ccccc2c1 (racemic) [2-1]	5	5	5	5	5	0
C=CCN(C(=O)Cc1ccc(Cl)cc1)C(c1cncnc1C(F)(F)F)C(C)C (racemic) [1-520]	5	5	5	5	5	1
CN(C(=O)Cc1ccsc1)C(c1cncnc1C(F)(F)F)C1(C)CC1 (racemic) [2-56]	5	5	5	5	5	1
Cc1ccc(CC(=O)N(C)C(c2ccccc2)c2cncnc2C(F)(F)F)s1 (racemic) [2-32]	5	5	5	5	5	1
COC(C)(OC)C(c1cncnc1C(C)C)N(C)C(=O)Cc1ccc(Cl)cc1 (racemic) [1-511]	5	5	4	5	5	0
COc1ccc(C(c2cncnc2C(F)(F)F)N(C)C(=O)Cc2ccc(F)cc2)cc1 (racemic) [1-485]	5	5	5	5	5	1
CN(C(=O)Cc1ccc(F)cc1)C(c1cccs1)c1cncnc1C(F)(F)F (racemic) [1-234]	5	5	5	5	5	1
CN(C(=O)Cc1ccc(Cl)s1)C(c1cncnc1C(F)(F)F)C1(C)CC1 (racemic) [2-58]	5	5	5	5	5	1
CCN(C(=O)Cc1cccs1)C(c1cncnc1C(F)F)C(C)C (racemic) [2-7]	5	5	5	5	5	1
CC(C)C(c1cncnc1C(F)(F)F)N(C)C(=O)C(C)(C)c1ccc(Cl)cc1 (racemic) [1-329]	5	5	5	5	5	1
